Results from ChEMBL document CHEMBL1141645, “Synthesis and antimycobacterial evaluation of new trans-cinnamic acid hydrazide derivatives” (2008).
Values after ≈ are worked out from the molar mass of the structure shown.

Test system: Mycobacterium tuberculosis
Assay: Antimicrobial activity against Mycobacterium tuberculosis ATCC […] by Almar blue assay
Assay type: functional

Compared with `O=C(/C=C/c1ccc([N+](=O)[O-])cc1)NNC(=O)c1ccncc1`, `O=C(/C=C/c1ccc([N+](=O)[O-])cc1)NNC(=O)c1ccccc1` is higher in MIC: 3.12 µg/mL (≈ 9.99 µM) for the first, > 100 µg/mL for the second.

First: O=C(/C=C/c1ccccc1)NNC(=O)c1ccccc1
Second: O=C(/C=C/c1ccccc1)NNC(=O)c1ccncc1
The MIC of the first is 16-fold higher: 50 µg/mL (≈ 188 µM) for the first, 3.12 µg/mL (≈ 11.7 µM) for the second.

`O=C(/C=C/c1ccc(Cl)cc1Cl)NNC(=O)c1ccccc1` and `O=C(/C=C/c1ccc(Cl)cc1Cl)NNC(=O)c1ccncc1` cannot be ordered by MIC: > 100 µg/mL for the first, > 100 µg/mL for the second.

Going from `O=C(/C=C/c1ccc2c(c1)OCO2)NNC(=O)c1ccccc1` to `O=C(/C=C/c1ccc2c(c1)OCO2)NNC(=O)c1ccncc1`, the MIC falls from 25 µg/mL (≈ 80.6 µM) to 3.12 µg/mL (≈ 10 µM) (8-fold).

First: NNC(=O)c1ccncc1 [ISONIAZID]
Second: COc1ccc(/C=C/C(=O)NNC(=O)c2ccncc2)cc1
The MIC of the first is 16-fold lower: 0.2 µg/mL (≈ 1.46 µM) for the first, 3.12 µg/mL (≈ 10.5 µM) for the second.

`COc1ccc(/C=C/C(=O)NNC(=O)c2ccccc2)cc1` gave an MIC of 12.5 µg/mL (≈ 42.2 µM).
